# Data: PMC6891475, “Synthesis and Antiproliferative Evaluation of Novel Hybrids of Dehydroabietic Acid Bearing 1,2,3-Triazole Moiety” (Molecules, 2019)
# What was measured:
# [1] = test system: human normal liver cell (HL-7702); experiment: MTT cytotoxicity assay, HL-7702 normal cells; type: cell-based; conditions: for IC50: mean ± SD from three independent experiments; for cytotoxicity on the human normal liver cell (HL-7702), in words: qualitative statement
# Protocol: (§1) The antiproliferative activities of the 16 library members were tested against four human cancer cell lines including human nasopharyngeal carcinoma cell (CNE-2), human liver cancer cell (HepG2), human hepatocellular carcinoma cell (BEL-7402), human cervical cancer cells (HeLa), and human normal liver cell (HL-7702) using MTT assay according the reported literature method.
# (§2) All the compounds (3a–p) were evaluated for their in vitro cytotoxicity against the following human cancer cell lines including CNE-2, HepG2, BEL-7402, Hela and normal liver cell HL-7702 by MTT assay. The cell lines were plated in 96-well plates at density of 5×10^3 cells/well and maintained at 37 °C with 5% CO2. The target compounds 3a–p dissolved in DMSO and further dilutions were made with DMEM, with cisplatin as the positive control. The concentration of the compounds used were 0.8, 4, 20, 100 μM. After the treatment of another 48 h and 72 h with different concentration of the samples (0.8, 4, 20, 100 μM), Therewith, 20 μL of MTT (5 mg/mL) was added and incubated for about 4 h. The medium was thrown away and the purple formazan precipitations were dissolved in 150 μL DMSO. The O. D. Value was measured at 490 nm in an enzyme labeling instrument.
# [2] = test system: human cervical cancer cells (HeLa); experiment: MTT antiproliferative assay, HeLa; type: cell-based; conditions: mean ± SD from three independent experiments
# Protocol: as §1, §2
# [3] = test system: human liver cancer cell (HepG2); experiment: MTT antiproliferative assay, HepG2; type: cell-based
# Protocol: as §1, §2
# [4] = test system: human nasopharyngeal carcinoma cell (CNE-2); experiment: MTT antiproliferative assay, CNE-2; type: cell-based
# Protocol: as §1, §2
# [5] = test system: human hepatocellular carcinoma cell (BEL-7402); experiment: MTT antiproliferative assay, BEL-7402; type: cell-based
# Protocol: as §1, §2
# [6] = mean ± SD from three independent experiments
# [7] = Homo sapiens, L02, normal liver cell
# [8] = Homo sapiens, HepG2, mean ± SD from three independent experiments
# [9] = Homo sapiens, CNE-2, mean ± SD from three independent experiments
# [10] = Homo sapiens, Bel-7402, mean ± SD from three independent experiments
Structure (SMILES),IC50 ([1]; normal liver cell),IC50 [2],"IC50 [3, 6]","IC50 [4, 6]","IC50 [5, 6]","IC50 [1, 7]",IC50 ([2]; Homo sapiens),melting point,"IC50 [3, 8]","IC50 [4, 9]","IC50 [5, 10]","cytotoxicity on the human normal liver cell (HL-7702), in words [1]"
"N.N.[Cl][Pt][Cl] [Cisplatin, cisplatin, reference compound]",20.8 ± 0.83 µM,1.94 ± 0.2 µM,6.42 ± 0.18 µM,8.75 ± 0.24 µM,12.7 ± 0.33 µM,–,–,–,–,–,–,–
"CC(C)c1ccc2c(c1)CCC1[C@](C)(C(=O)OCc3cn(Cc4ccccc4)nn3)CCC[C@]21C (stereo partly shown) [Compound 3a, (1-benzyl-1H-1,2,3-triazole-4-yl)dehydroabietic acid methyl ester]",–,–,–,–,–,> 100 µM,67.88 ± 0.56 µM,181 to 183.4 °C,> 100 µM,33.4 ± 0.33 µM,36.4 ± 70 µM,–
"CC(C)c1ccc2c(c1)CCC1[C@](C)(C(=O)OCc3cn(Cc4ccccc4F)nn3)CCC[C@]21C (stereo partly shown) [Compound 3b, [1-(2-fluorobenzyl)-1H-1,2,3-triazole-4-yl]dehydroabietic acid methyl ester]",–,–,–,–,–,> 100 µM,17.8 ± 0.31 µM,122.4 to 125.8 °C,25.9 ± 0.27 µM,21.4 ± 0.52 µM,18.6 ± 0.82 µM,–
"CC(C)c1ccc2c(c1)CCC1[C@](C)(C(=O)OCc3cn(Cc4cccc(F)c4)nn3)CCC[C@]21C (stereo partly shown) [Compound 3c, [1-(3-fluorobenzyl)-1H-1,2,3-triazole-4-yl]dehydroabietic acid methyl ester]",–,–,–,–,–,> 100 µM,20.1 ± 0.54 µM,175.7 to 178.3 °C,5.9 ± 0.41 µM,10.9 ± 0.21 µM,16.72 ± 0.06 µM,lower cytotoxicity
"CC(C)c1ccc2c(c1)CCC1[C@](C)(C(=O)OCc3cn(Cc4ccc(F)cc4)nn3)CCC[C@]21C (stereo partly shown) [Compound 3d, [1-(4-fluorobenzyl)-1H-1,2,3-triazole-4-yl]dehydroabietic acid methyl ester]",–,–,–,–,–,> 100 µM,22.3 ± 0.35 µM,183 to 186.3 °C,20.6 ± 0.09 µM,12.2 ± 0.33 µM,14.8 µM,–
"CC(C)c1ccc2c(c1)CCC1[C@](C)(C(=O)OCc3cn(Cc4ccccc4Cl)nn3)CCC[C@]21C (stereo partly shown) [Compound 3e, [1-(2-chlorobenzyl)-1H-1,2,3-triazole-4-yl]dehydroabietic acid methyl ester]",–,–,–,–,–,> 100 µM,44.28 ± 0.43 µM,80.6 to 84.3 °C,45.08 ± 0.33 µM,74.88 ± 0.14 µM,25.1 ± 0.32 µM,–
"CC(C)c1ccc2c(c1)CCC1[C@](C)(C(=O)OCc3cn(Cc4cccc(Cl)c4)nn3)CCC[C@]21C (stereo partly shown) [Compound 3f, [1-(3-chlorobenzyl)-1H-1,2,3-triazole-4-yl]dehydroabietic acid methyl ester]",–,–,–,–,–,> 100 µM,53.78 ± 0.32 µM,153.2 to 155.5 °C,22.3 ± 0.35 µM,59.03 ± 0.28 µM,26.09 ± 0.15 µM,–
"CC(C)c1ccc2c(c1)CCC1[C@](C)(C(=O)OCc3cn(Cc4ccc(Cl)cc4)nn3)CCC[C@]21C (stereo partly shown) [Compound 3g, [1-(4-chlorobenzyl)-1H-1,2,3-triazole-4-yl]dehydroabietic acid methyl ester]",–,–,–,–,–,> 100 µM,> 100 µM,176.9 to 179.2 °C,> 100 µM,60.7 ± 66 µM,38 ± 0.48 µM,–
"CC(C)c1ccc2c(c1)CCC1[C@](C)(C(=O)OCc3cn(Cc4ccccc4Br)nn3)CCC[C@]21C (stereo partly shown) [Compound 3h, [1-(2-bromobenzyl)-1H-1,2,3-triazole-4-yl]dehydroabietic acid methyl ester]",–,–,–,–,–,> 100 µM,25.9 ± 0.2 µM,95.1 to 97.3 °C,35.42 ± 0.21 µM,48.3 ± 0.27 µM,27.3 ± 0.36 µM,–
"CC(C)c1ccc2c(c1)CCC1[C@](C)(C(=O)OCc3cn(Cc4cccc(Br)c4)nn3)CCC[C@]21C (stereo partly shown) [Compound 3i, [1-(3-bromobenzyl)-1H-1,2,3-triazole-4-yl]dehydroabietic acid methyl ester]",–,–,–,–,–,> 100 µM,56.08 ± 0.36 µM,146.1 to 148 °C,40.7 ± 0.62 µM,44.14 ± 0.22 µM,36.88 ± 0.23 µM,–
"CC(C)c1ccc2c(c1)CCC1[C@](C)(C(=O)OCc3cn(Cc4ccc(Br)cc4)nn3)CCC[C@]21C (stereo partly shown) [Compound 3j, [1-(4-bromobenzyl)-1H-1,2,3-triazole-4-yl]dehydroabietic acid methyl ester]",–,–,–,–,–,> 100 µM,43.18 ± 0.22 µM,172.5 to 174 °C,23.4 ± 0.32 µM,> 100 µM,14.5 ± 0.62 µM,–
"CC(C)c1ccc2c(c1)CCC1[C@](C)(C(=O)OCc3cn(Cc4ccccc4[N+](=O)[O-])nn3)CCC[C@]21C (stereo partly shown) [Compound 3k, [1-(2-nitrobenzyl)-1H-1,2,3-triazole-4-yl]dehydroabietic acid methyl ester]",–,–,–,–,–,> 100 µM,> 100 µM,119.7 to 122.2 °C,6.25 ± 0.37 µM,44.9 ± 0.32 µM,18.6 ± 0.26 µM,lower cytotoxicity
"CC(C)c1ccc2c(c1)CCC1[C@](C)(C(=O)OCc3cn(Cc4cccc([N+](=O)[O-])c4)nn3)CCC[C@]21C (stereo partly shown) [Compound 3l, [1-(3-nitrobenzyl)-1H-1,2,3-triazole-4-yl]dehydroabietic acid methyl ester]",–,–,–,–,–,> 100 µM,67.37 ± 0.33 µM,128.5 to 132.3 °C,15.8 ± 0.64 µM,11.5 ± 0.18 µM,15.4 ± 0.51 µM,–
"CC(C)c1ccc2c(c1)CCC1[C@](C)(C(=O)OCc3cn(Cc4ccc([N+](=O)[O-])cc4)nn3)CCC[C@]21C (stereo partly shown) [Compound 3m, [1-(4-nitrobenzyl)-1H-1,2,3-triazole-4-yl]dehydroabietic acid methyl ester]",–,–,–,–,–,> 100 µM,22.5 ± 0.35 µM,173.9 to 176.7 °C,> 100 µM,19.6 ± 0.38 µM,22.81 ± 0.22 µM,–
"Cc1cccc(Cn2cc(COC(=O)[C@]3(C)CCC[C@]4(C)c5ccc(C(C)C)cc5CCC34)nn2)c1 (stereo partly shown) [Compound 3n, [1-(3-methylbenzyl)-1H-1,2,3-triazole-4-yl]dehydroabietic acid methyl ester]",–,–,–,–,–,> 100 µM,25.3 ± 0.81 µM,130.7 to 132.8 °C,60.18 ± 0.39 µM,> 100 µM,23.6 ± 0.44 µM,–
"Cc1ccc(Cn2cc(COC(=O)[C@]3(C)CCC[C@]4(C)c5ccc(C(C)C)cc5CCC34)nn2)cc1 (stereo partly shown) [Compound 3o, [1-(4-methylbenzyl)-1H-1,2,3-triazole-4-yl]dehydroabietic acid methyl ester]",–,–,–,–,–,> 100 µM,42.51 ± 0.37 µM,160.4 to 162 °C,51.78 ± 0.43 µM,> 100 µM,41.9 ± 0.72 µM,–
"COc1cccc(Cn2cc(COC(=O)[C@]3(C)CCC[C@]4(C)c5ccc(C(C)C)cc5CCC34)nn2)c1 (stereo partly shown) [Compound 3p, [1-(3-methoxybenzyl)-1H-1,2,3-triazole-4-yl]dehydroabietic acid methyl ester]",–,–,–,–,–,> 100 µM,24.66 ± 0.16 µM,106.5 to 108 °C,> 100 µM,80.98 ± 0.78 µM,25.03 ± 0.22 µM,–
"CC(C)c1ccc2c(c1)CC[C@H]1[C@](C)(C(=O)O)CCC[C@]21C [DHAA, dehydroabietic acid]",–,–,–,–,–,> 100 µM,37.4 ± 0.64 µM,–,80.4 ± 0.84 µM,–,–,–
